In patent US7728105B2, “Peptides impairing PBX dependent gene regulation” (St. George's Hospital Medical School, priority 2002, dated 2010):
Entries after “also recorded” stand apart in the source; their conditions may differ.

Legend:
Assay type in all cases: cell-based, human
AC133+ cells = assay: RT-PCR of CD38 and HOX genes in AC133+ cells
Protocol: Total RNA was extracted from cultured human cells using the Rneasy mini kit (Quiagen) and following the manufacturer's instructions. 3 μg of RNA was used in subsequent reverse transcription reactions. The RNA was mixed with a poly T15 oligo to 5 microgrammes/ml and heated to 75° C. for 5 minutes. After cooling on ice, the following additional reagents were added; dNTPs to 0.4 mM, RNase OUT (Promega) to 1.6 U/μl, Moloney Murine Leukemia Virus Reverse Transcriptase (M-MLRvT) RnaseH— point mutant (Promega) to 8 U/μl and the appropriate buffer (supplied by the manufacturer) to x1 concentration. The mixture was incubated for one hour at 37° C., heated to 70° C. for two minutes and cooled on ice.
PCR reactions were all performed in a total volume of 40 μl. For each we used 1 μl of the M-MLRvT reaction (as described above), 0.2 nmols of each primer and 20 microliters of Redimix pre-mixed PCR components (Sigma). All reactions were cycled at 94° C. for 30 seconds, 55° C. for 30 seconds and 72° C. for 60 seconds. 30 cycles were used for all primer sets except those for beta-actin, for which 23 cycles were used.

PBX/HOX dimers = assay: Western blotting of PBX and PBX/HOX dimers in CD133+ cells (Example 3); details: 20 μg/ml, EDC cross-linking
Protocol: (§1) CD133+ cells (another name for AC133+ cells) were seeded in duplicate at 4×10^4 cells/ml in IMDM (Life Technologies), 10% FCS (Sigma Aldrich) and gentamycin (50 μg/ml Life Technologies) and Thrombopoietin (TPO) 10 ng/ml, Flt3-Ligand (FL) 50 ng/ml & c-KitL (K) 20 ng/ml), all obtained from R and D systems Ltd., UK. (Forraz et al., 2002). The HXP peptide (N-term: WYPWMKKHHRQIKIWFQNRRMKWKK: C-term; Eurogentec, Belgium) and control CXP peptide (N-term: WCCLADRHGRQIKIWFQNRRMKWKK: C-term; Eurogentec, Belgium) were added to culture medium at a concentration of 20 μg/ml. To withdraw peptides from culture, cells were washed twice in IMDM or RPMI and reseeded at prewash cell densities. Primary cells were cultured for 3 weeks at 37° C., 5% CO2 in humidified atmosphere and enumerated by a […] exclusion method with a heamocytometer.
Protein was extracted from HXP-treated or CXP-treated CD133+ cells (20 μg/ml). C-20 antibody that recognises all three human PBX gene proteins (sc-888, Santa Cruz Biotechnology Inc., USA; Monica et al., 1991). Protein cross linking was performed with 2 mM 1-ethyl-3-[3-(dimethylamino)propyl]carbodiimide (EDC) (Pierce Biotechnology, USA), in cell lysates diluted 1:10 in conjugation buffer (0.1M 2-[N-morpholino]ethane sulphonic acid, pH 5). […]

[1] = tested on: KG1a, HL60 and U937 leukaemic cell lines; assay: Growth of leukaemic cell lines over 48 hours (Example 3); details: 20 μg/ml
Protocol: KG1a, HL60 and U937 cell lines were seeded as described in Example 1.
All cell lines were grown with HXP peptide (20 μg/ml) or CXP (20 μg/ml). Cell lines were cultured for various time points at 37° C., 5% CO2 in humidified atmosphere and enumerated at various time points.

CD133+ cells = assay: CD133+ cell proliferation in cytokine supplemented liquid culture over 18 days
Protocol: as §1

malignant cell lines = assay: Proliferation of malignant cell lines over seven days in culture; set-up: effect of increased dose on proliferation of malignant cell lines: dose or concentration left out as unconfirmed
Protocol: A number of cell lines representing different malignancies were grown in culture for seven days, and HXP peptide or the control peptide CXP were added to a final concentration of 20 μg/ml on day 3. The bars represent the fold increase of each cell line over the seven days; the empty, dashed bars indicate the CXP peptide treated cells, whilst the solid bars indicate the addition of HXP peptide. Error bars represent the standard error the mean, and n is the number of experiments performed. The cell lines used were: AML—KG1a; Bladder—HT; Breast—SKBR3; Cervical—HeLa; Colon—Colo41; Gastric—MKN-45; Large cell lung cancer—MES; Melanoma—DX3; Ovarian—1847; Pancreatic—Panc-Tu1; Prostate—LNCAP; Renal—HT1376; Small cell lung cancer—NCI-h510A. The change in the expression of the HOX genes expressed by each cell line was assessed by RT-PCR on RNA extracted from the cells at the end of seven days. ‘HOX gene inactivated’ means that the level of expression of each of the listed HOX genes was at least five fold lower in the HXP peptide treated cells compared to the control. *Analysis not yet complete.
A number of cell lines representing different malignancies were grown in culture for seven days, and HXP peptide or the control peptide CXP were added to a final concentration of 200 μg/ml on day 3. The bars represent the fold increase of each cell line over the seven days; the empty, dashed bars indicate the CXP peptide treated cells, whilst the solid bars indicate the addition of HXP peptide. Error bars represent the standard error the mean, and n is the number of experiments performed. The cell lines used were: Bladder—HT; Cervical—HeLa; Melenoma—DX3; Pancreatic—Panc-Tu1.
Solid tumour cell lines (Cancer Research UK) were seeded at 4×10^4 cells/ml, in a liquid culture system made of appropriate medium (see table, Sigma-Aldrich, UK) supplemented with 10% FCS (Sigma Aldrich) and penstrep (1% Sigma). All cell lines were grown with HXP peptide (as in Example 3, 20 μg/ml or 200 μg/ml) or control peptide CXP (20 μg/ml or 200 μg/ml).
KG1a, KG1, HL60 and U937 cell lines (EACC, UK) were seeded at 5×10^4 cells/ml, in a liquid culture system made of RPMI-1640 medium (Life Technologies, UK) supplemented with 10% FCS (Sigma Aldrich) and gentamicin (50 μg/ml Life Technologies) in triplicates. All cell lines were grown with HXP peptide peptide (20 μg/ml) or control peptide (20 μg/ml).
Cell lines were cultured for various time points at 37° C., 5% CO2 in humidified atmosphere and enumerated at various time points.

[2] = 20 μg/ml added on day 3, seven days culture

With “WYPWMKKHHRQIKIWFQNRRMKWKK [HXP peptide]” the CD38 gene expression (AC133+ cells) was “up-regulation”, the “HOX B4, B8 and A9 gene expression” value (AC133+ cells; from as early as day 3) was “down-regulated” and the “binding of PBX to other proteins / formation of PBX/HOX dimers” value (PBX/HOX dimers) was “prevented binding of PBX to other proteins; also recorded: distrupted the formation of PBX/HOX dimers”. The “cell growth inhibition on leukaemic cell lines” value [1] was “potent cell growth inhibition”, the “time at which cell growth inhibition is apparent” value [1] was “two” and the “inhibition of CD133+ cell growth compared to CXP peptide-treated cells” value (CD133+ cells; day 18, 20 μg/ml, average, p<0.001) was 3.7 fold. For the same substance, the “CD133+ cell proliferation after withdrawal of HXP peptide” value (CD133+ cells; withdrawal at day 7, compared to 18 day-HXP peptide treated cells, p<0.01) was “resumption of cell proliferation”, the “fold increase in cell number after 7 days in culture, in some cases” value (malignant cell lines; 20 μg/ml) was “less than 1” and the “proliferation of cells derived from colorectal, pancreatic, small cell lung, bladder, prostate, cervical, ovarian and gastric cancers” value (malignant cell lines; [2]) was “sufficient to block the proliferation”. The “proliferation of cells derived from renal, breast and non-small cell lung cancer” value (malignant cell lines; [2]) was “no significant affect” and the “effect of increased dose on proliferation of malignant cell lines” value (malignant cell lines; ten fold increase in dose) was “complete ablation of some malignancies”.
